# According to patent US5827245A, “Transdermal therapeutic system comprising the active subtance 17-β-Estradiol (Anhydrous)” (LTS Lohmann Therapie-Systeme GmbH & Co. KG, priority 1992, dated 1998):
# Legend:
# [1] = Thermal stability / conversion of 17-β-estradiol semihydrate to the anhydrous form; assay type: physicochemical
# Method: At room temperature and usual relative humidity of air (20 to 60% relative humidity), 17-β-estradiol is not present in one of the two known modifications (I and II) which are free from crystal water but as a semihydrate (Busetti a. Hospital, Acta Cryst. 1972, B28, 560). Due to the stratified structure of the crystal compound, which is stabilized by hydrogen bridges, and its diffusion density, the hydrate can be heated for a short period of time to temperatures of about 170° C. (Kuhnert-Brandstatter u. Winkler (1976) Scientia Pharmaceutica 44 (3), 177-190) while remaining undecomposed. However, by way of micronization, i.e. increasing the surface of the crystals, it is possible to quantitatively convert 17-β-estradiol semihydrate to its anhydrous form at as low a temperature as about 120° C. According to our own observations, conversion already occurs at about 90° C. where heating is slow (0.2 to 1 K/min) and particularly fine material is used.
# [2] = short period of time; cited from earlier work
structure (smiles),measurement,setting,value
C[C@]12CC[C@@H]3c4ccc(O)cc4CC[C@H]3[C@@H]1CC[C@@H]2O [17-β-estradiol semihydrate],temperature of quantitative conversion to the anhydrous form,[1]; micronized,about 120 °C
same,temperature at which conversion already occurs,"[1]; slow heating (0.2 to 1 K/min), particularly fine material, own observations",about 90 °C
same,temperature to which the hydrate can be heated while remaining undecomposed,[2],about 170 °C
